Data reported in patent US20130029928A1 (priority 2010, published 2013).
Several values for one entry are separate records, joined by “and”; a condition that tells them apart may be missing. Equal entries are not always repeated. Where two headings read alike, the source gives them in different places. Marks after values point to notes of the source that are not given here.

Key:
[1] = system: Panc-1 (pancreatic tumour) cells; experiment: Western blot of ER stress-regulated proteins in Panc-1 cells; assay type: cell-based, human; settings: 500 μM, 4 h to 4 days
Method: Western blots were performed on the protein extracts (equivalent protein concentrations were loaded onto the gels). The antibodies used were for known ER stress regulated protein Bip/GRP78, CHOP/DDIT3, IRE1alpha, TRB3 (Tribbles3), cleaved PARP (marker of apoptosis), and tubulin (loading control) (see FIG. 71).

PANC-1 cells [2] = experiment: Western blot of PCNA and cleaved PARP in PANC-1 cells; assay type: cell-based, human; settings: 450 μM, 24 hrs
Method: PCNA is a marker for cell proliferation and cleaved PARP is representative of caspase cleavage and apoptosis. […] Western blot analysis was performed with increasing amounts of protein, ranging between 2 and 20 μg (lanes 1-8). Positive control protein was derived from MCF7 cells (PCNA blot, lane 9) or from HeLa cells treated with staurosporine for 3 hours (Cleaved PARP blot, lanes 9, 10). Levels of total β-Actin are shown as a control for protein loading.
Cells respond to the accumulation of unfolded proteins in the ER by a rescue process called the unfolded protein response (UPR). However, if the unfolded protein accumulation is persistent and the stress cannot be relieved, UPR signalling switches from prosurvival to proapoptotic (Kim (2006)), (Szegezdi (2006)), usually involving processing of caspases (Chang (2006)). Consistent with this hypothesis, CXR1002-treated PANC-1 cells show reduced proliferation and cleavage of the caspase substrate poly-ADP ribose polymerase (PARP) (FIG. 2) in PANC-1 cells.

MES-SA = experiment: ATP depletion cytotoxicity assay 48 hr; assay type: cell-based; settings: Homo sapiens, Study CXR0798, read-out: IC50 1
Method: (§1) The SRB assay was performed according to the method specified by the NIC/NIH. […] Assay replicates were independent in time and up to 4 replicates were performed per cell line.

CYP2C9 = CYP2C9 (Homo sapiens, UniProt P11712); experiment: Cytochrome P450 isozyme inhibition; assay type: in vitro ADME; settings: under the conditions used (unpublished data); read-out: IC50 towards CYP2C9
Chain of CYP2C9 (P11712 whole entry): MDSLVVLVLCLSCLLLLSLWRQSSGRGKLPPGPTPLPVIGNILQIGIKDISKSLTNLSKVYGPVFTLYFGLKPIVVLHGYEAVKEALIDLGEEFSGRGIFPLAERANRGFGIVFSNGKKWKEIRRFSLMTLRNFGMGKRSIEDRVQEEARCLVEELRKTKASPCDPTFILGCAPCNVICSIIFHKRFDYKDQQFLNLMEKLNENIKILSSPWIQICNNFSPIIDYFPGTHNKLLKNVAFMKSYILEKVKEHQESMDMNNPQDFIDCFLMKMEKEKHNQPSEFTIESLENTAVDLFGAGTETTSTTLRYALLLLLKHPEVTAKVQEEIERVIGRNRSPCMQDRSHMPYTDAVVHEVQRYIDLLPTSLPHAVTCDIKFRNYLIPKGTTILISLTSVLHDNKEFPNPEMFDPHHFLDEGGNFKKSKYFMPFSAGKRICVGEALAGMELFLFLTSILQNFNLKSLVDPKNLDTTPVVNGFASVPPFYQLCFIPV
Source text: There is no evidence that APFO is metabolised in mammals once dissociated to form perfluorooctanoate.

[3] = system: HT-29 (colon adenocarcinoma) tumours; experiment: HT-29 xenograft in nude mice; assay type: in vivo, nude mouse
Source text: Animals were inoculated with a tumour cell suspension on each flank and the tumours were allowed to grow for 16 days.
These effects are consistent with a transient effect on the liver associated with mild toxicity and reversible liver enlargement. In rodents, this type of effect is usually due to hepatic PPARα activation associated with peroxisome proliferation.

SW1353 = experiment: ATP depletion cytotoxicity assay 48 hr; assay type: cell-based, human
Method: (§2) Following exposure to Test Items, the CellTitre-Glo Luminescent Cell Viability Assay to measure ATP content was performed according to the manufacturer's detailed instructions (Promega Corporation, Technical Bulletin No. 288, and Cell notes, Issue 10, 2004).
(§3) Cells were plated at the optimal plating density for that cell line in 96-well plates and allowed to attach overnight. […] Cells were exposed to these compounds in Roswell Park Memorial Institute (RPMI) medium containing 10% Foetal Calf Serum (FCS) and 2 mM Glutamine at 37° C. and 5% CO2 for 48 hours. There were 3 replicates for each test item concentration.
(§4) Following exposure to Test Items, the CellTitre-Glo Luminescent Cell Viability Assay to measure ATP content will be performed according to the manufacturer's detailed instructions (Promega Corporation, Technical Bulletin No. 288, and Cell notes, Issue 10, 2004).

HepG2 = experiment: SRB cytotoxicity assay 48 hr; assay type: cell-based, human; settings: read-out: IC50 Values After 48 Hrs Exposure
Method: as §1

PANC-1 = experiment: ATP depletion cytotoxicity assay 48 hr; assay type: cell-based, human
Method: as §2, §3, §4

MCF-7 = experiment: SRB cytotoxicity assay 48 hr; assay type: cell-based, human; settings: read-out: IC50 Values After 48 Hrs Exposure
Method: as §1

CaCo-2 = experiment: ATP depletion cytotoxicity assay 48 hr; assay type: cell-based, human
Method: (§5) Assay replicates were independent in time and up to 4 replicates were performed per cell line.
(§6) Cells were plated at the optimal plating density for that cell line in 96-well plates and allowed to attach overnight. The next day, the medium was removed and replaced with fresh medium containing the dose ranges of test items. […] There were 3 replicates for each test item concentration.
as §2
(§7) Cells were plated at the optimal plating density for that cell line in 96-well plates and allowed to attach overnight. The next day, cells were pre-treated with the inhibitors UO126 or LY294002 (see Tables 18 & 20) for 2 hrs, the medium was removed and replaced with fresh medium containing the appropriate dose of the test item. […] Cells were exposed to these compounds in Roswell Park Memorial Institute (RPMI) medium containing 10% Foetal Calf Serum (FCS) and 2 mM Glutamine at 37° C. and 5% CO2 for 48 hours. There were 3 replicates for each test item concentration.
as §4

H (chondrosarcoma) = experiment: ATP depletion cytotoxicity assay 48 hr; settings: H
Method: as §5, §6
Cells were plated at the optimal plating density for that cell line in 96-well plates and allowed to attach overnight. The next day, cells were pre-treated with the inhibitors UO126 or LY294002 (see Tables 18 & 20) for 2 hrs, the medium was removed and replaced with fresh medium containing the appropriate dose of the test item. […] Cells that were to be treated with DPQ received no pre-treatment. […] There were 3 replicates for each test item concentration.

PANC-1 cells [4] = experiment: Transcription profiling of CXR1002-treated PANC-1 cells (ER stress genes, Ingenuity); assay type: cell-based, human; settings: PANC-1, 24 hrs at IC15
Source text: Representation analysis of the in vitro 4996 signature list identified a number of pathways that were over-represented.

Metabolism = settings: patients / human
Source text: It is presumed that CXR1002 will eventually reach a steady state level after a number of doses, in an analogous way to its accumulative exposure in monkeys.
Unlike most other anti-tumour agents, PFOA is efficiently absorbed following oral exposure.

SK-OV3 = experiment: ATP depletion cytotoxicity assay 48 hr; assay type: cell-based, human
Method: as §5, §6, §2, §7, §4

MDA-MB-157 = experiment: ATP depletion cytotoxicity assay 48 hr; assay type: cell-based, human
Method: as §5, §6, §2, §7, §4

Capan2 = experiment: ATP depletion cytotoxicity assay 48 hr; assay type: cell-based, human
Method: as §5, §6, §2, §7, §4

Plasma protein binding = assay type: in vitro ADME
[5] = system: patients with advanced cancer; experiment: Phase I study CXR1002-001: anti-tumour response; assay type: in vivo, human
OV-90 = experiment: ATP depletion cytotoxicity assay 48 hr; assay type: cell-based, human
Method: as §5, §6, §2, §7, §4

[6] = system: patients with advanced cancer; experiment: Phase I study CXR1002-001: plasma HDL-C and LDL-C; assay type: in vivo, human; settings: 6 weeks of treatment, % baseline
Source text: Individual patient raw data was captured and represented in graphs as % change from baseline (screening). […] Data represents either mean±SEM values or median, range+individual data points.

[7] = ATP depletion, 48 hrs, read-out: IC50 1-4 (independent replicates)

## O=C(O)C(F)(F)C(F)(F)C(F)(F)C(F)(F)C(F)(F)C(F)(F)C(F)(F)F [CXR1002]
[1]
  expression of ER stress-regulated proteins: altered expression of ER stress-regulated proteins
PANC-1 cells [2]
  PCNA protein level (cell proliferation marker): reduced PCNA levels
  cleaved PARP protein level (apoptosis marker): increased cleaved PARP
MES-SA
  IC50: > 1000 µM
CYP2C9
  IC50: 0.76 µM
[3]; 25 mg/kg i.p. three times per week for 28 days
  effect on tumour volumes: anti-tumour effect
[3]; HT-29, 25 mg/kg i.p. three times per week, Day 29
  Absolute Tumour Volume as a Percentage of Saline Control: 49.22%
[3]; HT-29 model
  effect on body weight: No significant compound-dependent effects
  increase in liver weight: up to 2.5 fold
[3]; HT-29 model, 24 hrs post last dose, Day 29
  Terminal / maximum CXR1002 plasma level: 277 µM
[3]; mice bearing HT-29 xenografts
  increase in plasma AST: up to 3.5 fold
  plasma ALT levels: decreased
[3]; tumour-bearing nude mice, HT-29
  plasma glucose and triglyceride levels: slight reductions
SW1353; Homo sapiens, SW1353, 48 h, read-out: IC50 1-4 (independent replicates)
  IC50: > 1000 µM
SW1353; Homo sapiens, SW1353, 48 h, read-out: IC50 Mean
  IC50: > 1000 µM
SW1353; read-out: IC50 1-4 (independent replicates), ATP depletion, 48 hrs, SW1353
  IC50: > 1000 µM
HepG2
  IC50: 162 ± 31.8 µM
PANC-1; [7]
  IC50: > 1 mM (2×) and 880 µM
PANC-1; Homo sapiens, PANC-1, 48 h, ATP depletion, 48 hrs, read-out: IC50 1-4 (independent replicates)
  IC50: > 1000 µM
PANC-1; Homo sapiens, PANC-1, 48 h, ATP depletion, 48 hrs, read-out: IC50 Mean
  IC50: > 1000 µM
PANC-1; Homo sapiens, PANC-1, 48 h, Example 7, 48 hour, CXR1002 0-1 mM, U0126 fixed 10 μM where combined, read-out: IC50
  IC50: > 1000 µM
MCF-7
  IC50: 276 ± 33.2 µM
CaCo-2; ATP depletion, 48 hrs, CaCo-2, read-out: IC50 1-4 (independent replicates)
  IC50: 690 µM and 670 µM
CaCo-2; Homo sapiens, Caco-2, 48 h, ATP depletion, 48 hrs, CaCo-2, read-out: IC50 1-4 (independent replicates)
  IC50: 680 µM
CaCo-2; Homo sapiens, Caco-2, 48 h, ATP depletion, 48 hrs, CaCo-2, read-out: IC50 Mean
  IC50: 680 µM
CaCo-2; Homo sapiens, Caco-2, 48 h, Example 7, 48 hour, CaCO2, CXR1002 0-1 mM, U0126 fixed 10 μM where combined, read-out: IC50
  IC50: 704 µM
H (chondrosarcoma); Example 7, 48 hour, CXR1002 0-1 mM, U0126 fixed 10 μM where combined
  IC50: 817 µM
H (chondrosarcoma); read-out: IC50 1-4 (independent replicates), ATP depletion, 48 hrs
  IC50: 550 µM and 555 µM and 800 µM
H (chondrosarcoma); read-out: IC50 Mean, ATP depletion, 48 hrs
  IC50: 635 µM
PANC-1 cells [4]
  ATF3 induction: 3 fold
Metabolism
  metabolism: not metabolised
SK-OV3; Homo sapiens, SK-OV-3, 48 h, read-out: IC50 1-4 (independent replicates)
  IC50: 550 µM
SK-OV3; Homo sapiens, SK-OV-3, 48 h, read-out: IC50 Mean
  IC50: 535 µM
SK-OV3; read-out: IC50 1-4 (independent replicates)
  IC50: 520 µM
MDA-MB-157; Homo sapiens, MDA-MB-157, 48 h, read-out: IC50 1-4 (independent replicates), ATP depletion, 48 hrs, MDA-MB-157
  IC50: 670 µM
MDA-MB-157; Homo sapiens, MDA-MB-157, 48 h, read-out: IC50 Mean, ATP depletion, 48 hrs, MDA-MB-157
  IC50: 665 µM
MDA-MB-157; read-out: IC50 1-4 (independent replicates), ATP depletion, 48 hrs, MDA-MB-157
  IC50: 675 µM and 650 µM
Capan2; Homo sapiens, Capan-2, 48 h, read-out: IC50 1-4 (independent replicates), ATP depletion, 48 hrs, Capan2
  IC50: 850 µM
Capan2; Homo sapiens, Capan-2, 48 h, read-out: IC50 Mean, ATP depletion, 48 hrs, Capan2
  IC50: 817 µM
Capan2; read-out: IC50 1-4 (independent replicates), ATP depletion, 48 hrs, Capan2
  IC50: 750 µM
Plasma protein binding
  plasma protein binding: highly plasma protein bound
[5]; 50 mg/week, pancreatic
  On-Study Duration: 35 weeks
[5]; 100 mg/week, colorectal
  On-Study Duration: 20 weeks
[5]; 200 mg/week, anaplastic thyroid, patient remains on study
  On-Study Duration: 22* weeks
[5]; 200 mg/week, cervical, patient remains on study
  On-Study Duration: 22* weeks
[5]; investigator assessment
  best response: stable disease
[5]; one patient with pancreatic cancer
  duration of stable disease: 7 months
OV-90; [7]
  IC50: 670 µM
OV-90; Homo sapiens, OV-90, 48 h, ATP depletion, 48 hrs, read-out: IC50 1-4 (independent replicates)
  IC50: 650 µM
OV-90; Homo sapiens, OV-90, 48 h, ATP depletion, 48 hrs, read-out: IC50 Mean
  IC50: 657 µM
OV-90; Homo sapiens, OV-90, 48 h, Example 7, 48 hour, CXR1002 0-1 mM, U0126 fixed 10 μM where combined, read-out: IC50
  IC50: 714 µM
[6]
  effect on plasma HDL-C: remains unchanged
  effect on plasma LDL-C: lowering effect
